Results reported in US20120039865A1, “IDENTIFICATION OF SORTILIN AS A NEURONAL RECEPTOR FOR THE FRONTOTEMPORAL DEMENTIA PROTEIN, PROGRANULIN” (Yale University, priority 2008, published 2012).

Legend:
[1] = system: Rat (Sprague-Dawley) cortical neurons; assay: AP-tagged ligand binding to cultured rat cortical neurons
Protocol: (§1) Rat (Sprague-Dawley) cortical neurons were isolated from E18 embryos and cultured in vitro for 3-21 days. Cultures were maintained in Neurobasal-A medium supplemented with B27, GLUTAMAX™ (2 mM), sodium pyruvate (1 mM), penicillin, and streptomycin. The binding of 10 nM AP-PGRN or 10 nM AP was detected as a dark reaction product produced by alkaline phosphatase (AP). Binding was measured as follows. The AP tagged ligand (in NBA) was incubated with the cortical neurons for 1 hr at 4° C., washed three times with HBH buffer, fixed with formaldehyde, and after washing again with HBH the neurons were incubated in a 67° C. oven to inactivate the endogenous AP. The tagged AP was then visualized using AP substrate 5-bromo-4-chloro-3-indolyl phosphate/nitro blue tetrazolium, which results in a dark precipitate. […] The addition of 100 nM Flag-PGRN displaced 10 nM AP-PGRN (FIG. 1C, middle panel).

[2] = biological target: T1, purified ectodomain of Sort1 (amino acids 60-725 of the human sequence) (Homo sapiens, UniProt Q99523); assay: Physical complex of purified proteins isolated by affinity chromatography; type: binding; settings: data not shown
T1 sequence (Q99523 60-725): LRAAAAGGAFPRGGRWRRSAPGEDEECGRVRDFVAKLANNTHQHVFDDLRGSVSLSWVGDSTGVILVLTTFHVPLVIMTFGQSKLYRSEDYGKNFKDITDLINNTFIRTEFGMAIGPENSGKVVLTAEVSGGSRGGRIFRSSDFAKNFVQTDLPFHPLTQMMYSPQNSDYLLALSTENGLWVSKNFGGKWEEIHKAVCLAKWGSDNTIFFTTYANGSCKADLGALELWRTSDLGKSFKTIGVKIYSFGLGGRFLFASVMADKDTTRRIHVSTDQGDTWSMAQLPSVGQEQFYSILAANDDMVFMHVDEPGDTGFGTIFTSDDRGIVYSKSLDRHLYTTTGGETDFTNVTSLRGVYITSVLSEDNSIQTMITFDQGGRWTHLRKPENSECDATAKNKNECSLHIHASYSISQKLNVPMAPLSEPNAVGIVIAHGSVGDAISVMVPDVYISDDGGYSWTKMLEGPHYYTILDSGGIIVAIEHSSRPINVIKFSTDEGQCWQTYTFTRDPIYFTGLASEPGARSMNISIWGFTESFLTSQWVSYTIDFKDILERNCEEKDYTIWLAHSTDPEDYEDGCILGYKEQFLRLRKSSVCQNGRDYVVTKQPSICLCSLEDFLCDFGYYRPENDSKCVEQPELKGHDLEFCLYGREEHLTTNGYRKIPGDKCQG

[3] = system: COS-7 cells transfected with empty vector; assay: AP-PGRN binding to COS-7 cells transfected with empty vector; settings: 20 nM AP-PGRN
Protocol: To determine the molecular nature of the neuronal binding site of PGRN, expression cloning experiments utilizing AP-PGRN as a tagged ligand were conducted. COS-7 (ATCC No. CRL-1651) cells were transfected with expression vectors containing mouse cDNAs using FUGENE® 6 according to manufacturer's specifications (Roche). An arrayed adult mouse brain cDNA library (OriGene) of 225,000 clones was screened in pools of 5,000 at a time, as well as a library consisting of 352 individual preparations of cDNAs encoding transmembrane proteins (GFC-transfection array panel, OriGene). The COS-7 cells that specifically bound AP-PGRN (5 nM) contained a single cDNA clone, which encoded a single-pass, membrane-spanning surface glycoprotein that supports high affinity AP-PGRN binding (FIG. 2A, upper-right panel). […] As in mouse cortical neurons, binding of 5 nM AP-PGRN to Sort-1 (PGRN-R) in COS-7 cells was displaceable by excess untagged PGRN (100 nM) and was saturable, with an apparent Kd of 6 nM (FIG. 2A, lower-right panel, and 2B). The binding affinity of AP-PRGN measured for Sort1-transfected COS-7 cells and for neurons was indistinguishable, with a Kd of 5-10 nM (FIG. 2B, 6 nM, and data not shown). In both cases, unlabeled 100 nM PGRN displaced binding (FIG. 2A, lower-right panel, and FIG. 3A, right panel).

[4] = biological target: T2, SorLA (Homo sapiens, UniProt Q92673); assay: AP-PGRN binding to COS-7 cells expressing SorLA; settings: 120 nM AP-PGRN
T2 construct: host or cells: COS-7
From the text: (§2) The human SorLA expression vector was provided by Anders Nykjaer, M.D., Ph.D., Aarhus University, Aarhus, Denmark (Jacobsen, L., et al., J. Biol. Chem. 276:22788-22796 (2001); Gliemann, J., et al., Biochem J. 381:203-212 (2004); GenBank Accession No. U60975), and the mouse SorCS1 expression vector in pCMV-Sport6 was obtained from Open Biosystems (GenBank Accession No. BC007486). […] A fragment of PGRN, termed PGRN-E in the literature, binds to sortilin with the same affinity as does full length PGRN (data not shown).

[5] = biological target: T3, SorCS1 (Mus musculus, UniProt Q9JLC4); assay: AP-PGRN binding to COS-7 cells expressing SorCS1; settings: 120 nM AP-PGRN
T3 construct: host or cells: COS-7
T3 sequence (Q9JLC4 34-1167): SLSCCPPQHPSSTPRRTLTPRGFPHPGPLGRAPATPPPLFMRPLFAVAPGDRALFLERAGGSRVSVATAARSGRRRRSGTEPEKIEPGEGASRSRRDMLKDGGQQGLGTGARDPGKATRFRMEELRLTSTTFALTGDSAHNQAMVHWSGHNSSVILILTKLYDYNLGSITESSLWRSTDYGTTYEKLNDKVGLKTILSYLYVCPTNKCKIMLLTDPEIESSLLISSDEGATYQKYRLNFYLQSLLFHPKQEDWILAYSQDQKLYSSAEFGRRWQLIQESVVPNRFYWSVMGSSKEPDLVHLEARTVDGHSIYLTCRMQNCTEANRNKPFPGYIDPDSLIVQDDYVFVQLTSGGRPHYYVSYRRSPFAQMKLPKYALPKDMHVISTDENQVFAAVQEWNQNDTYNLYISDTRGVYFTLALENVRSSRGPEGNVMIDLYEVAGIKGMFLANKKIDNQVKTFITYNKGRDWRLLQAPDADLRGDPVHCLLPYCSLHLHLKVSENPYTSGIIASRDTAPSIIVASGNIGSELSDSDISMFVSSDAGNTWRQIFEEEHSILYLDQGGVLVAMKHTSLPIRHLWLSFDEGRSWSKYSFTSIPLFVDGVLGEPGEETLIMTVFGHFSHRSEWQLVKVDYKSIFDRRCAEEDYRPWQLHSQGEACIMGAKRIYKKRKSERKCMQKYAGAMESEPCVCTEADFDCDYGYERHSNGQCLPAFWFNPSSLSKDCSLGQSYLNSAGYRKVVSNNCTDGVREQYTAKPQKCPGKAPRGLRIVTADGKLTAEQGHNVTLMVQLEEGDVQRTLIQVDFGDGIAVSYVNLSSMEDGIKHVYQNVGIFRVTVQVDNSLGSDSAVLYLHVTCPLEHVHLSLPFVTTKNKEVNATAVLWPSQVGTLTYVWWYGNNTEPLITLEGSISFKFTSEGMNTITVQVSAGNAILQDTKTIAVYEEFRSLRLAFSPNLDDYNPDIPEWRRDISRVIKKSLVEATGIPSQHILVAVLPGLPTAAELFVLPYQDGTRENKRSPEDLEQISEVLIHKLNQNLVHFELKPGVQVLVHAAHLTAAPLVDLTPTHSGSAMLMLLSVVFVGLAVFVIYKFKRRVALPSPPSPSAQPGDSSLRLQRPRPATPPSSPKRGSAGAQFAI
From the text: as §2

[6] = biological target: T4, sortilin-1 (Sort1; PGRN-R) (Mus musculus, UniProt Q6PHU5); assay: AP-PGRN binding to COS-7 cells transfected with Sort1 cDNA
T4 construct: host or cells: COS-7 (ATCC No. CRL-1651)
T4 sequence (Q6PHU5 74-825): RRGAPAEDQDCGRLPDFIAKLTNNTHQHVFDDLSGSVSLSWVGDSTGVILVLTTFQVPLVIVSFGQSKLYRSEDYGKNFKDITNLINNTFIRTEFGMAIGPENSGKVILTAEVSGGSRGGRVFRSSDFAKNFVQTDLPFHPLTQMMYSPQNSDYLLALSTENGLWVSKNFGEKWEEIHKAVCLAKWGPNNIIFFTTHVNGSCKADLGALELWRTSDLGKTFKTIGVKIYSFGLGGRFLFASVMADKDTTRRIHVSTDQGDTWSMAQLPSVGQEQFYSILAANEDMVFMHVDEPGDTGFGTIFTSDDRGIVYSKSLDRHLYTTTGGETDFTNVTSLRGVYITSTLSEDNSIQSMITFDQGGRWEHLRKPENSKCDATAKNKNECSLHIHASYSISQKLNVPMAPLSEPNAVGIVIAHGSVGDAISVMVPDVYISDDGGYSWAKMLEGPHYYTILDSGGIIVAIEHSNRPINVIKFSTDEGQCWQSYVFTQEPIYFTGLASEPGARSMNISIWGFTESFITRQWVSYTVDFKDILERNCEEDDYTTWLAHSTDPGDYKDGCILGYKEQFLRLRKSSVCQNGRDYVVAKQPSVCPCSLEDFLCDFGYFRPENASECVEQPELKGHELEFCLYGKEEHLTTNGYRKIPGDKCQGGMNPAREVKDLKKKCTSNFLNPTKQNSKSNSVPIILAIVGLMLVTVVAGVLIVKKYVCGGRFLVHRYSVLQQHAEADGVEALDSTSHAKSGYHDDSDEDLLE
Protocol: as §1
To determine the molecular nature of the neuronal binding site of PGRN, expression cloning experiments utilizing AP-PGRN as a tagged ligand were conducted. COS-7 (ATCC No. CRL-1651) cells were transfected with expression vectors containing mouse cDNAs using FUGENE® 6 according to manufacturer's specifications (Roche). […]

[7] = system: mouse E17 cortical neurons; assay: AP-PGRN binding to mouse cortical neurons (wild type, sortilin +/- and -/-)
Protocol: as §1
Binding was measured according to the methods described above by preincubating 100 nM PGRN with the cortical neurons for 1 hr and using a 5 nM AP-PGRN and 100 nM untagged PGRN mixture. […]
Gene-targeted sortilin −/− and +/− mice from Anders Nykjaer, M.D., Ph.D., Aarhus University, Aarhus, Denmark, were used to obtain cultures of cortical neurons. The binding of 2 nM AP-PGRN to cortical neurons isolated from sortilin −/− (FIG. 3B, left panel) and +/− (FIG. 3B, right panel) mice was evaluated. […]

T2 sequence (Q92673 82-2214): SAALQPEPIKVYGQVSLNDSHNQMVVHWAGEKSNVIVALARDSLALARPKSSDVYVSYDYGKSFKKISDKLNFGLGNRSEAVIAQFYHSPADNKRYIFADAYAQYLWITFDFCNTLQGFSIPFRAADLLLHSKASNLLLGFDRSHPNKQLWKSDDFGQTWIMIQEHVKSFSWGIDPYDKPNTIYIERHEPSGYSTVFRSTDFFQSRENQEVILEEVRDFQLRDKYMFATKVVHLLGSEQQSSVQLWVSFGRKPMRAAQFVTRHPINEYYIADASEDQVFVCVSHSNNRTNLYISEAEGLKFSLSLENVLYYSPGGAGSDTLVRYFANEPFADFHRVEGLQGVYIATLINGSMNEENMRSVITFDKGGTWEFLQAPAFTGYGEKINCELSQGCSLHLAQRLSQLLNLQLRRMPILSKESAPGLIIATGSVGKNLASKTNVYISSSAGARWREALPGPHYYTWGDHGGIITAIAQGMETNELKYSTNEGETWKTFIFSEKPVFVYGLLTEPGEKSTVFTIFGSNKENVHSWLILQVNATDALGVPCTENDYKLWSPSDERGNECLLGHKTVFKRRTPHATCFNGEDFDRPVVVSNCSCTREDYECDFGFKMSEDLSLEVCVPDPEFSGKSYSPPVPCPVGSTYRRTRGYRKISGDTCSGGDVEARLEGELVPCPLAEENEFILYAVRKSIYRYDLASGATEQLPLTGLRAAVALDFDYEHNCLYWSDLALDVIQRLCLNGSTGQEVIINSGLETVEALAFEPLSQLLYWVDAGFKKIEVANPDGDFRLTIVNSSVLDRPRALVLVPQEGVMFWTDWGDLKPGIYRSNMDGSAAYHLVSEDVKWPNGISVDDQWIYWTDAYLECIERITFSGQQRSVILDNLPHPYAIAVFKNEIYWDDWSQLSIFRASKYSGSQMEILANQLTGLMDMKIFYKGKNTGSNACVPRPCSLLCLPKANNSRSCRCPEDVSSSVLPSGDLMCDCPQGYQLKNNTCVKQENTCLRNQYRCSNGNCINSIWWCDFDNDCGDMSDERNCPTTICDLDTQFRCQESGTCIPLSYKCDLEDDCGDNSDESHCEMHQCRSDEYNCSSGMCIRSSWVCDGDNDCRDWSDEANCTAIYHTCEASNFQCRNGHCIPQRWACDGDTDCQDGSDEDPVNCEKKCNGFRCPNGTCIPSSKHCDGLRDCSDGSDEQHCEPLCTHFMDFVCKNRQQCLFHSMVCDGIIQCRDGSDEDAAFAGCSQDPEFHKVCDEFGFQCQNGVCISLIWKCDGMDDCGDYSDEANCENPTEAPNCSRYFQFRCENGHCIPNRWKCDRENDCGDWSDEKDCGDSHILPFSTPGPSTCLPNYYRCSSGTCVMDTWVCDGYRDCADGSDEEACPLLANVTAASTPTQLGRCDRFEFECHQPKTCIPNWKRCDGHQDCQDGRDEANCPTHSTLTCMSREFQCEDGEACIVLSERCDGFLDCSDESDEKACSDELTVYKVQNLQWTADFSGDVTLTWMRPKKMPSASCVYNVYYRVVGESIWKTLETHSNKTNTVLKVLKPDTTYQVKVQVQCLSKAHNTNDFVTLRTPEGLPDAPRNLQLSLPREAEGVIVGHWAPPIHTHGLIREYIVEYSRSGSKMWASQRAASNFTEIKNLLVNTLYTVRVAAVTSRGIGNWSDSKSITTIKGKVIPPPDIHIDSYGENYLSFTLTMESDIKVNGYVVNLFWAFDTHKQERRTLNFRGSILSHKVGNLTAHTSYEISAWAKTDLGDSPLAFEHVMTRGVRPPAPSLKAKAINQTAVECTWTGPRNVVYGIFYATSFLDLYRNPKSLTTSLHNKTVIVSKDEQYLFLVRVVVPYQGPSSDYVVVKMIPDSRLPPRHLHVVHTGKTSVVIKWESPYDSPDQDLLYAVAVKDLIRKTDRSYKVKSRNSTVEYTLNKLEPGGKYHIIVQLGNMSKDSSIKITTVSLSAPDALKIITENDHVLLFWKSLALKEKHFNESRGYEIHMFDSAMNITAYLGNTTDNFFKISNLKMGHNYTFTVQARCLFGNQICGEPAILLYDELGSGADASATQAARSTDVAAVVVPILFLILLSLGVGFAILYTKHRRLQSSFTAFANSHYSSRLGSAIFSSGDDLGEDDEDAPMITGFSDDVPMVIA

Row | Substance | displacement of AP-PGRN binding ([1]; 100 nM competitor against 10 nM AP-PGRN) | complex formation with Sort1 ectodomain [2] | binding to empty-vector COS-7 cells [3] | affinity for SorLA [4] | binding to cultured cortical neurons (dark AP reaction product) ([1]; 10 nM AP-tagged ligand, 1 hr at 4° C.) | affinity for SorCS1 [5] | binding to Sort1-transfected COS-7 cells ([6]; 20 nM ligand) | Kd ([6]; read-out: binding affinity Kd for Sort1-transfected COS-7 cells) [nM] | AP-PGRN binding in sortilin -/- cortical neurons ([7]; 2 nM AP-PGRN, neurons from sortilin -/- vs +/- mice) | Kd ([7]; neurons, species not stated, data not shown, read-out: binding affinity Kd for neurons) [nM]
1 | Flag-PGRN: FLAG-tagged PGRN produced by HEK293T cell transfection, purified by anti-FLAG affinity gel | displaced | formed a physical complex |  |  |  |  |  |  |  | 
2 | AP-PGRN: alkaline-phosphatase (AP) tagged human progranulin fusion protein produced in HEK293T cells |  |  | did not bind | no affinity | specifically and discreetly bound | no affinity | bound | 5 to 10 | 30 % of control values | 5 to 10
